Measured values as given in ChEMBL document CHEMBL1212926, “Design of potent inhibitors of human RAD51 recombinase based on BRC motifs of BRCA2 protein: modeling and experimental validation of a chimera peptide” (J Med Chem, 2010).
pIC50, pKi: −log10 of the molar value. Activity calls are given as the source filed them. The rule behind the calls is not given here. Where a SMILES comes first, the peptide text is derived from it.

Key:
[1] = molecular target: T1, DNA repair protein RAD51 homolog 1 (Homo sapiens) (UniProt Q06609); test: Binding affinity to human RAD51 by isothermal titration calorimetry
T1 sequence (whole entry): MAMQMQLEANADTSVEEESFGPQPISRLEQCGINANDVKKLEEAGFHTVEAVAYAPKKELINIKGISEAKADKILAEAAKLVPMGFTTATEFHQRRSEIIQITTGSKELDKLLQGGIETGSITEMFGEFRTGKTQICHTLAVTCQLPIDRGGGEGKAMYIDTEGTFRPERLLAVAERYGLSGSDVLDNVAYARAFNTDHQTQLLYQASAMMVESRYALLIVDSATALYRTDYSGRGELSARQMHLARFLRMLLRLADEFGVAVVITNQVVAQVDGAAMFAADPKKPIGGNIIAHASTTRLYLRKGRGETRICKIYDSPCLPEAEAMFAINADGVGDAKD

[2] = molecular target: T1, DNA repair protein RAD51 homolog 1 (Homo sapiens); test: Binding affinity to human RAD51 at 40 uM by circular dichroism assay
[3] = molecular target: T1, DNA repair protein RAD51 homolog 1 (Homo sapiens); test: Inhibition of human RAD51-mediated 58-mer single-stranded DNA strand exchange activity at 5 to 15 uM after 1 hr by PAGE
[4] = molecular target: T2, DNA repair protein RAD51 homolog 1 (Homo sapiens, UniProt Q06609); test: Inhibition of human RAD51 assessed as concentration required for half dissociation of protein/single-stranded DNA complex formation by fluorescence polarimetry
T2 sequence (Q06609 whole entry): T1 sequence (whole entry)

[5] = molecular target: T2, DNA repair protein RAD51 homolog 1; test: Inhibition of human RAD51 assessed as dissociation of protein/single-stranded oligo(AGT)12 complex formation by fluorescence polarimetry
[6] = molecular target: T2, DNA repair protein RAD51 homolog 1; test: Inhibition of human RAD51 assessed as dissociation of protein/single-stranded poly-(d-epsilonA) complex formation by fluorescence polarimetry

Row | Compound | K [1] [×10⁵ /M] | Activity [2] | inhibition [3] | pKi [4] | pIC50 [5] | pIC50 [6]
1 | CC[C@H](C)[C@H](NC(=O)[C@H](CCCCN)NC(=O)[C@@H](NC(=O)[C@H](CCCCN)NC(=O)[C@H](CCCCN)NC(=O)CNC(=O)[C@H](CO)NC(=O)[C@H](CO)NC(=O)[C@@H](NC(=O)[C@H](Cc1cnc[nH]1)NC(=O)[C@H](Cc1ccccc1)NC(=O)CN)[C@@H](C)O)C(C)C)C(=O)N[C@@H](C)C(=O)N[C@@H](CCCCN)C(=O)N[C@@H](CCC(=O)O)C(=O)N[C@@H](CO)C(=O)N[C@@H](CC(C)C)C(=O)N[C@@H](CC(=O)O)C(=O)N[C@@H](CCCCN)C(=O)N[C@H](C(=O)N[C@@H](CCCCN)C(=O)N[C@@H](CC(N)=O)C(=O)N[C@@H](CC(C)C)C(=O)N[C@@H](Cc1ccccc1)C(=O)O)C(C)C | < 0.1 | Active | Active |  |  | 
2 | CC[C@H](C)[C@H](NC(=O)[C@H](CCCCN)NC(=O)[C@@H](NC(=O)[C@H](CCCCN)NC(=O)[C@H](CCCCN)NC(=O)CNC(=O)[C@H](CO)NC(=O)[C@H](C)NC(=O)[C@@H](NC(=O)[C@H](Cc1cnc[nH]1)NC(=O)[C@H](Cc1ccccc1)NC(=O)CN)[C@@H](C)O)C(C)C)C(=O)N[C@@H](CO)C(=O)N[C@@H](CCCCN)C(=O)N[C@@H](CCC(=O)O)C(=O)N[C@@H](CO)C(=O)N[C@@H](CC(C)C)C(=O)N[C@@H](CC(=O)O)C(=O)N[C@@H](CCCCN)C(=O)N[C@H](C(=O)N[C@@H](CCCCN)C(=O)N[C@@H](CC(N)=O)C(=O)N[C@@H](CC(C)C)C(=O)N[C@@H](Cc1ccccc1)C(=O)O)C(C)C | 5.2 | Active | Active | 5.74 | 5.70 | 5.60
3 | CC[C@H](C)[C@H](NC(=O)[C@H](CCCCN)NC(=O)[C@@H](NC(=O)[C@H](CCCCN)NC(=O)[C@H](CCCCN)NC(=O)CNC(=O)[C@H](CO)NC(=O)[C@H](C)NC(=O)[C@@H](NC(=O)[C@H](Cc1cnc[nH]1)NC(=O)[C@H](Cc1ccccc1)NC(=O)CN)[C@@H](C)O)C(C)C)C(=O)N[C@@H](C)C(=O)N[C@@H](CCCCN)C(=O)N[C@@H](CCC(=O)O)C(=O)N[C@@H](CO)C(=O)N[C@@H](CC(C)C)C(=O)N[C@@H](CC(=O)O)C(=O)N[C@@H](CCCCN)C(=O)N[C@H](C(=O)N[C@@H](CCCCN)C(=O)N[C@@H](CC(N)=O)C(=O)N[C@@H](Cc1ccccc1)C(=O)N[C@@H](Cc1ccccc1)C(=O)O)C(C)C | 7.3 | Active | Active | 5.38 | 5.59 | 5.30
4 | CC[C@H](C)[C@H](NC(=O)[C@H](CCCCN)NC(=O)[C@@H](NC(=O)[C@H](CCCCN)NC(=O)[C@H](CCCCN)NC(=O)CNC(=O)[C@H](CO)NC(=O)[C@H](C)NC(=O)[C@@H](NC(=O)[C@@H](N)Cc1cnc[nH]1)[C@@H](C)O)C(C)C)C(=O)N[C@@H](C)C(=O)N[C@@H](CCCCN)C(=O)N[C@@H](CCC(=O)O)C(=O)N[C@@H](CO)C(=O)N[C@@H](CC(C)C)C(=O)N[C@@H](CC(=O)O)C(=O)N[C@@H](CCCCN)C(=O)N[C@H](C(=O)N[C@@H](CCCCN)C(=O)N[C@@H](CC(N)=O)C(=O)N[C@@H](CC(C)C)C(=O)N[C@@H](Cc1ccccc1)C(=O)N[C@@H](CC(=O)O)C(=O)N[C@@H](CCC(=O)O)C(=O)O)C(C)C (H-HTASGKKVKIAKESLDKVKNLFDE-OH) |  | Active |  |  |  | 

The next lines start with the values.

Row | K [1] [×10⁵ /M] | Activity [2] | inhibition [3] | pKi [4] | pIC50 [5] | pIC50 [6] | Compound
5 |  |  | Active | 6.12 | 5.98 | 5.82 | CC[C@H](C)[C@H](NC(=O)[C@H](CCCCN)NC(=O)[C@@H](NC(=O)[C@H](CCCCN)NC(=O)[C@H](CCCCN)NC(=O)CNC(=O)[C@H](CO)NC(=O)[C@H](C)NC(=O)[C@@H](NC(=O)[C@H](Cc1ccc(O)cc1)NC(=O)[C@H](Cc1ccccc1)NC(=O)CN)[C@@H](C)O)C(C)C)C(=O)N[C@@H](CO)C(=O)N[C@@H](CCCCN)C(=O)N[C@@H](CCC(=O)O)C(=O)N[C@@H](CO)C(=O)N[C@@H](CC(C)C)C(=O)N[C@@H](CC(=O)O)C(=O)N[C@@H](CCCCN)C(=O)N[C@H](C(=O)N[C@@H](CCCCN)C(=O)N[C@@H](CC(N)=O)C(=O)N[C@@H](Cc1ccccc1)C(=O)N[C@@H](Cc1ccccc1)C(=O)O)C(C)C (H-GFYTASGKKVKISKESLDKVKNFF-OH)
6 | 3.8 | Active | Active | 5.22 | 5.57 | 5.15 | CC[C@H](C)[C@H](NC(=O)[C@H](CCCCN)NC(=O)[C@@H](NC(=O)[C@H](CCCCN)NC(=O)[C@H](CCCCN)NC(=O)CNC(=O)[C@H](CO)NC(=O)[C@H](C)NC(=O)[C@@H](NC(=O)[C@H](Cc1ccc(O)cc1)NC(=O)[C@H](Cc1ccccc1)NC(=O)CN)[C@@H](C)O)C(C)C)C(=O)N[C@@H](C)C(=O)N[C@@H](CCCCN)C(=O)N[C@@H](CCC(=O)O)C(=O)N[C@@H](CO)C(=O)N[C@@H](CC(C)C)C(=O)N[C@@H](CC(=O)O)C(=O)N[C@@H](CCCCN)C(=O)N[C@H](C(=O)N[C@@H](CCCCN)C(=O)N[C@@H](CC(N)=O)C(=O)N[C@@H](CC(C)C)C(=O)N[C@@H](Cc1ccccc1)C(=O)O)C(C)C
